One test has as its target hNAMPT protein (Homo sapiens (Human), UniProt P43490). In words: NAMPT enzyme assay (TR-FRET/HTRF with BodiPY ligand). It is filed as binding. The conditions noted are these: for inhibition at 1 µM: NAMPT inhibition at compound concentration 1 μM, read-out: Percent Inhibition; for pIC50: NAMPT inhibition, IC50 range class. An outline of the steps: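 His-tagged hNAMPT with anti-6His-Tb, incubated with compound and BodiPY ligand for 1 h at rt in the dark, in Tris-HCl pH 7.5 buffer with DTT, NaCl, MgCl2 and Tween 20. TR-FRET measured with 320 nm excitation as the 520/486 nm emission ratio. IC50 fitted relative to DMSO controls.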

For the next test, the system named is PC3 cells. Nature of the test: PC3 growth inhibition (Cell-titer glo, 72 hours). The conditions noted are these: Homo sapiens, PC-3, 72 h, read-out: Percent Viability, PC3 cells, compound concentration 1.667 μM, 72 hours. It counts as cell-based. An outline of the steps:
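PC3 cells grown in RPMI1640 plated at 8×10^4 cells/ml, incubated overnight, then exposed to compound diluted in AIM serum-free medium for 72 h at 37 °C, 5% CO2. Luminescence by CellTiter-Glo relative to DMSO controls; % viability at single concentration, GI50 or LD50 from concentration-response curves.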

pIC50: −log10 of the molar value. Some results are limits rather than exact numbers.

hNAMPT protein, sequence (P43490 whole entry): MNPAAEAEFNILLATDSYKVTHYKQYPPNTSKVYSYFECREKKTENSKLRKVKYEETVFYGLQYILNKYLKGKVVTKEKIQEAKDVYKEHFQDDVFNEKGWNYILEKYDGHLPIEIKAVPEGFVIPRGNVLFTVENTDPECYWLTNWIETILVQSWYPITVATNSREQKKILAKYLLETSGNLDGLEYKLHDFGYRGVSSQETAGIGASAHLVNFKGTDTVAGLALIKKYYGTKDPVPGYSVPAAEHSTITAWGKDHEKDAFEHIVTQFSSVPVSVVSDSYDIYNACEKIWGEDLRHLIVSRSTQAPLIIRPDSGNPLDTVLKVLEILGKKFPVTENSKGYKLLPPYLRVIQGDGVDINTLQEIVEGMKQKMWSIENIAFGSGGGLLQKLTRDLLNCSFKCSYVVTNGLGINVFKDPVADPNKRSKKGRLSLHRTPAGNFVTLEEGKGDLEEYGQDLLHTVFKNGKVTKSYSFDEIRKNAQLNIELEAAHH

One may read the inhibition as the drop in the measured response relative to a control, in per cent. The term pIC50 denotes the negative decadic logarithm of the IC50, by convention in mol/L. Read a high pIC50 as a low IC50. As for `CCOc1cc(-c2cc(OC)ncc2F)nc2cc(C(=O)NCCCc3[nH]nnc3C)ccc12` [Compound I-68, 4-ethoxy-2-(5-fluoro-2-methoxypyridin-4-yl)-N-[3-(4-methyl-1H-1,2,3-triazol-5-yl)propyl]quinoline-7-carboxamide], at hNAMPT protein, the inhibition at 1 µM was determined as 92% and the negative-log IC50 (pIC50) was 7.30 to 8.00. In the test with PC3 cells, the viability at 1.667 µM worked out at 1%.

For `CCOc1cc(-c2ccc(F)cc2)nc2cc(C(=O)NCCCc3c[nH]nc3C)ccc12` [Compound I-201, 4-ethoxy-2-(4-fluorophenyl)-N-[3-(3-methyl-1H-pyrazol-4-yl)propyl]quinoline-7-carboxamide], at hNAMPT protein, the inhibition at 1 µM amounted to 98% and the negative-log IC50 (pIC50) was greater than 8.00. In the test on PC3 cells, the viability at 1.667 µM turned out to be 3%.

For the compound `CCCc1nc(-c2ccc(Cl)cc2)nc2cc(C(=O)NCCc3cncn3C)ccc12` [Compound I-1, 2-(4-chlorophenyl)-N-[2-(1-methyl-1H-imidazol-5-yl)ethyl]-4-propylquinazoline-7-carboxamide], on hNAMPT protein, the inhibition at 1 µM is greater than 99% and the pIC50 is greater than 8.00. Moreover, in the test on PC3 cells, the viability at 1.667 µM was found to be 2%.

`CCOc1cc(-c2ccc(F)cc2)nc2cc(C(=O)NCCCc3ncc[nH]3)ccc12` [Compound I-15, 4-ethoxy-2-(4-fluorophenyl)-N-[3-(1H-imidazol-2-yl)propyl]quinoline-7-carboxamide]: at hNAMPT protein, the inhibition at 1 µM was greater than 99% and the pIC50 is greater than 8.00. Further, the viability at 1.667 µM with PC3 cells is 2%.

Consider `CC(C)Oc1nc(-c2ccc(F)cc2)nc2cc(C(=O)NCCCc3ncc[nH]3)ccc12` [Compound I-36, 2-(4-fluorophenyl)-N-[3-(1H-imidazol-2-yl)propyl]-4-isopropoxyquinazoline-7-carboxamide], for which, on hNAMPT protein, the inhibition at 1 µM was greater than 99% and the negative logarithm of the IC50 (pIC50) is greater than 8.00. In addition, in the test on PC3 cells, the viability at 1.667 µM is 2%.

On to `COCCOc1cc(-c2ccc(F)cc2)nc2cc(C(=O)NCCc3c[nH]nc3C)ccc12` [Compound I-126, 2-(4-fluorophenyl)-4-(2-methoxyethoxy)-N-[2-(3-methyl-1H-pyrazol-4-yl)ethyl]quinoline-7-carboxamide], for which, at hNAMPT protein, the inhibition at 1 µM was determined as 91% and the negative-log IC50 (pIC50) was 7.00 to 7.30. Further, in the test with PC3 cells, the viability at 1.667 µM came to 2%.

Regarding `CCOc1cc(-c2ccc(F)cc2)nc2cc(C(=O)NCCCc3ccc(C)nc3)ccc12` [Compound I-227, 4-ethoxy-2-(4-fluorophenyl)-N-[3-(6-methylpyridin-3-yl)propyl]quinoline-7-carboxamide], on hNAMPT protein, the inhibition at 1 µM stood at 100% and the pIC50 was greater than 8.00. Further, in the test with PC3 cells, the viability at 1.667 µM came to 6%.

`CC(C)Cc1nc(-c2ccc(Cl)s2)nc2cc(C(=O)NCCCc3ncc[nH]3)ccc12` [Compound I-23, 2-(5-chloro-2-thienyl)-N-[3-(1H-imidazol-2-yl)propyl]-4-isobutylquinazoline-7-carboxamide]: at hNAMPT protein, the inhibition at 1 µM was greater than 99% and the negative-log IC50 (pIC50) was 7.30 to 8.00. Moreover, the viability at 1.667 µM with PC3 cells was determined as 1%.

As to `O=C(NCCCc1ncc[nH]1)c1ccc2c(Cc3ccccc3)nc(-c3ccc(Cl)cc3)nc2c1` [Compound I-53, 4-benzyl-2-(4-chlorophenyl)-N-[3-(1H-imidazol-2-yl)propyl]quinazoline-7-carboxamide], at hNAMPT protein, the inhibition at 1 µM was determined as 93% and the negative logarithm of the IC50 (pIC50) was 7.30 to 8.00. Besides, in the test on PC3 cells, the viability at 1.667 µM was 4%.

On to `CCOc1cc(-c2ccc(F)cc2OC)nc2cc(C(=O)NCCc3cnn[nH]3)ccc12` [Compound I-108, 4-ethoxy-2-(4-fluoro-2-methoxyphenyl)-N-[2-(1H-1,2,3-triazol-5-yl)ethyl]quinoline-7-carboxamide], for which, at hNAMPT protein, the inhibition at 1 µM is 99% and the pIC50 was 7.30 to 8.00. The viability at 1.667 µM in the test with PC3 cells was found to be 3%.

For `CCOc1cc(-c2ccc(F)cc2)nc2cc(C(=O)NCCc3nnc[nH]3)ccc12` [Compound I-131, 4-ethoxy-2-(4-fluorophenyl)-N-[2-(4H-1,2,4-triazol-3-yl)ethyl]quinoline-7-carboxamide], on hNAMPT protein, the inhibition at 1 µM came out at 99% and the pIC50 was 7.30 to 8.00. Further, the viability at 1.667 µM with PC3 cells came to 3%.

For the compound `CCOc1cc(C2CC2)nc2cc(C(=O)NCCCc3ncc[nH]3)ccc12` [Compound I-58, N-(3-(1H-Imidazol-2-yl)propyl)-2-cyclopropyl-4-ethoxyquinoline-7-carboxamide], on hNAMPT protein, the inhibition at 1 µM is 96% and the negative-log IC50 (pIC50) is 7.30 to 8.00. Moreover, the viability at 1.667 µM in the test with PC3 cells worked out at 1%.

Turning to `CCOc1cc(-c2cn[nH]c2)nc2cc(C(=O)NCCCc3nnc[nH]3)ccc12` [Compound I-205, 4-ethoxy-2-(1H-pyrazol-4-yl)-N-[3-(4H-1,2,4-triazol-3-yl)propyl]quinoline-7-carboxamide], on hNAMPT protein, the inhibition at 1 µM was determined as 63% and the pIC50 was less than 7.00. The viability at 1.667 µM in the test with PC3 cells turned out to be 4%.

`CCOc1cc(-c2ccc(F)cc2)nc2cc(C(=O)NCCCc3n[nH]nc3C)ccc12` [Compound I-133, 4-ethoxy-2-(4-fluorophenyl)-N-[3-(5-methyl-2H-1,2,3-triazol-4-yl)propyl]quinoline-7-carboxamide]: on hNAMPT protein, the inhibition at 1 µM is greater than 99% and the negative logarithm of the IC50 (pIC50) is greater than 8.00. The viability at 1.667 µM in the test on PC3 cells was found to be 2%.

As for `CCOc1cc(-c2ccc(F)cc2)nc2cc(C(=O)N[C@H]3C[C@@H](c4nnc[nH]4)C3)ccc12` [Compound I-222, 4-ethoxy-2-(4-fluorophenyl)-N-[cis-3-(4H-1,2,4-triazol-3-yl)cyclobutyl]quinoline-7-carboxamide], on hNAMPT protein, the inhibition at 1 µM stood at 96% and the negative-log IC50 (pIC50) was 7.30 to 8.00. Moreover, the viability at 1.667 µM in the test on PC3 cells was determined as 4%.

For the compound `CCOc1cc(-c2ccc(F)cc2)nc2cc(C(=O)NCc3cc4cnccc4s3)ccc12` [Compound I-79, 4-ethoxy-2-(4-fluorophenyl)-N-(thieno[3,2-c]pyridin-2-ylmethyl)quinoline-7-carboxamide], on hNAMPT protein, the inhibition at 1 µM was determined as 99% and the pIC50 is greater than 8.00. Further, the viability at 1.667 µM in the test with PC3 cells was 2%.

For the compound `CCOc1cc(-c2ccnc(OC)c2)nc2cc(C(=O)NCc3ccn4ncnc4c3)ccc12` [Compound I-70, 4-ethoxy-2-(2-methoxypyridin-4-yl)-N-([1,2,4]triazolo[1,5-a]pyridin-7-ylmethyl)quinoline-7-carboxamide], on hNAMPT protein, the inhibition at 1 µM is 99% and the negative-log IC50 (pIC50) is greater than 8.00. In addition, the viability at 1.667 µM in the test on PC3 cells amounted to 1%.

As to `CCOc1cc(C2CCOCC2)nc2cc(C(=O)NCCCc3nnc[nH]3)ccc12` [Compound I-135, 4-ethoxy-2-(tetrahydro-2H-pyran-4-yl)-N-[3-(4H-1,2,4-triazol-3-yl)propyl]quinoline-7-carboxamide], on hNAMPT protein, the inhibition at 1 µM stood at 71% and the negative-log IC50 (pIC50) is less than 7.00. In addition, the viability at 1.667 µM with PC3 cells is 4%.

On to `CCOc1cc(-c2ccc(C)nc2)nc2cc(C(=O)NCCCc3nnc[nH]3)ccc12` [Compound I-173, 4-ethoxy-2-(6-methylpyridin-3-yl)-N-[3-(4H-1,2,4-triazol-3-yl)propyl]quinoline-7-carboxamide], for which, at hNAMPT protein, the inhibition at 1 µM is 98% and the pIC50 was 7.30 to 8.00. In addition, the viability at 1.667 µM in the test on PC3 cells stood at 2%.

For `CCOc1cc(-c2ccc(C)nc2)nc2cc(C(=O)NCCc3c[nH]nc3C)ccc12` [Compound I-113, 4-ethoxy-N-[2-(3-methyl-1H-pyrazol-4-yl)ethyl]-2-(6-methylpyridin-3-yl)quinoline-7-carboxamide], on hNAMPT protein, the inhibition at 1 µM came to 97% and the negative logarithm of the IC50 (pIC50) is 7.30 to 8.00. Further, the viability at 1.667 µM in the test on PC3 cells worked out at 2%.

In the case of `CC[C@@H](F)c1nc(-c2ccc(Cl)cc2)nc2cc(C(=O)NCCCc3ncc[nH]3)ccc12` (stereo in doubt) [Compound I-72, 2-(4-chlorophenyl)-4-[1-fluoropropyl]-N-[3-(1H-imidazol-2-yl)propyl]quinazoline-7-carboxamide], on hNAMPT protein, the inhibition at 1 µM stood at 98% and the negative-log IC50 (pIC50) was greater than 8.00. Also, in the test on PC3 cells, the viability at 1.667 µM was determined as 1%.

For the compound `CC(C)(C)OCc1nc(-c2ccc(Cl)cc2)nc2cc(C(=O)NCCCc3ncc[nH]3)ccc12` [Compound I-30, 4-(tert-butoxymethyl)-2-(4-chlorophenyl)-N-[3-(1H-imidazol-2-yl)propyl]quinazoline-7-carboxamide], on hNAMPT protein, the inhibition at 1 µM came to 91% and the negative-log IC50 (pIC50) was 7.00 to 7.30. Also, the viability at 1.667 µM in the test on PC3 cells came out at 1%.

Turning to `CCOc1cc(-c2cc(OC)ncc2F)nc2cc(C(=O)NCCCc3ncc[nH]3)ccc12` [Compound I-12, 4-ethoxy-2-(5-fluoro-2-methoxypyridin-4-yl)-N-[3-(1H-imidazol-2-yl)propyl]quinoline-7-carboxamide], at hNAMPT protein, the inhibition at 1 µM was greater than 99% and the negative logarithm of the IC50 (pIC50) was greater than 8.00. Moreover, the viability at 1.667 µM in the test with PC3 cells came out at 1%.

`CCOc1cc(-c2ccc(C)nc2)nc2cc(C(=O)NCCCc3cnn[nH]3)ccc12` [Compound I-110, 4-ethoxy-2-(6-methylpyridin-3-yl)-N-[3-(1H-1,2,3-triazol-5-yl)propyl]quinoline-7-carboxamide]: at hNAMPT protein, the inhibition at 1 µM turned out to be 100% and the negative logarithm of the IC50 (pIC50) is greater than 8.00. The viability at 1.667 µM in the test on PC3 cells was 2%.

On to `CCOCc1nc(-c2ccc(Cl)cc2)nc2cc(C(=O)NCCCc3ncc[nH]3)ccc12` [Compound I-20, 2-(4-chlorophenyl)-4-(ethoxymethyl)-N-[3-(1H-imidazol-2-yl)propyl]quinazoline-7-carboxamide], for which, on hNAMPT protein, the inhibition at 1 µM was found to be 98% and the pIC50 is 7.30 to 8.00. Moreover, in the test on PC3 cells, the viability at 1.667 µM worked out at 1%.

Values taken from patent US10323018B2 (Millennium Pharmaceuticals, Inc., priority 2015, dated 2019).
